Test results taken from paper PMC6571122 (Journal of medicinal chemistry, 2019).
Several values for one entry are separate records, joined by “and”; a condition that tells them apart may be missing. Equal entries are not always repeated.

What was measured:
[1] = mouse liver microsome intrinsic clearance; type: in vitro ADME; settings: liver microsomes
[2] = in vitro; settings: human, liver microsomes
[3] = measured LogP octanol/buffer; type: physicochemical; settings: pH 11
[4] = target: hERG (Homo sapiens, UniProt Q12809); assay: CEREP 44 safety screen, [3H] Dofetilide binding; settings: probe [3H] Dofetilide
hERG, sequence (Q12809 whole entry): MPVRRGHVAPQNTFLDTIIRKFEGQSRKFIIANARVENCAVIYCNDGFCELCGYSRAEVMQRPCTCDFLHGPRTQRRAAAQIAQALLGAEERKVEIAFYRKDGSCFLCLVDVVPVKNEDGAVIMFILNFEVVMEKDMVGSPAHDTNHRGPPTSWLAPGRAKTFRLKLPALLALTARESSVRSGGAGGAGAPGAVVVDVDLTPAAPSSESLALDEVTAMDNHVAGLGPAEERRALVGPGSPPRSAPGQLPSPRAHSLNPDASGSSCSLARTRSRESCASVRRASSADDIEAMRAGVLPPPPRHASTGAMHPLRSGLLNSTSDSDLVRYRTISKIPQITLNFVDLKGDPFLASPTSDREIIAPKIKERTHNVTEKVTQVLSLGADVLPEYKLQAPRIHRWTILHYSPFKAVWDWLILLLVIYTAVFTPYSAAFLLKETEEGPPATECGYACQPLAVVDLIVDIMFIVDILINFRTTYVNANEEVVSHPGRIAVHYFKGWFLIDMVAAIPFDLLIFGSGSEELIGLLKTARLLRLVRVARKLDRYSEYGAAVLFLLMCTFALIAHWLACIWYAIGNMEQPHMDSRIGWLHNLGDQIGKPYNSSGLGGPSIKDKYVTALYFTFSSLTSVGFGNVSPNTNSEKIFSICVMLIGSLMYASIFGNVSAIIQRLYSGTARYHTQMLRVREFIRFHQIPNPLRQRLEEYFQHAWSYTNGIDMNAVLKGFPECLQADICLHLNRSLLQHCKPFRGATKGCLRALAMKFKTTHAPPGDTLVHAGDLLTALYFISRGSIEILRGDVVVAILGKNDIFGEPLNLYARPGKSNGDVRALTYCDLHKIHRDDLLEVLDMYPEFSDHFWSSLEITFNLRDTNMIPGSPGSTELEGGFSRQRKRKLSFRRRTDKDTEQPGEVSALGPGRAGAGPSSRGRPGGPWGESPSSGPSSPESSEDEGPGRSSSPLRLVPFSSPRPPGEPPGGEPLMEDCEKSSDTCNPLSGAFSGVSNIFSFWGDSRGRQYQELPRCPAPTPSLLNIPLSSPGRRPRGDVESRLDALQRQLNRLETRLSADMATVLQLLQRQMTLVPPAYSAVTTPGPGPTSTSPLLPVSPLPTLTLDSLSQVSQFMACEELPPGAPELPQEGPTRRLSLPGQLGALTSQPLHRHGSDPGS

[5] = brain to blood ratio; settings: female, CD1, mouse, in vivo, 10 mg/kg
[6] = kinetic solubility; type: physicochemical; settings: pH 7.4, Solubility (kinetic)
[7] = thermodynamic solubility; type: physicochemical

| SMILES | CLint scaled [2] | CLint scaled at 1 h, 10 µM [2] | other results |
| --- | --- | --- | --- |
| Cc1ncc(-c2cccc(N3CCN(c4cnc(N)nc4N)CC3)c2)cn1 [Compound 29, 5-(4-(3-(2-methylpyrimidin-5-yl)phenyl)piperazin-1-yl)pyrimidine-2,4-diamine] | < 8.6 mL/min/kg | – | CLint scaled at 1 h, 10 µM [1]: 431 mL/min/kg |
| CCc1nc(N)nc(N)c1-c1ccc(Cl)cc1 [Compound 1, Pyrimethamine, reference compound] | < 8.6 mL/min/kg | – | logP [3]: 2.71 |
| Nc1ncc(N2CCN(c3cccc(-c4ccncc4)c3)CC2)c(N)n1 [Compound 24, 5-(4-(3-(Pyridin-4-yl)phenyl)piperazin-1-yl)pyrimidine-2,4-diamine] | – | 18.7 mL/min/kg | – |
| Nc1ncc(N2CCN(c3cccc(-c4ccccn4)c3)CC2)c(N)n1 [Compound 22, 5-(4-(3-(pyridin-2-yl)phenyl)piperazin-1-yl)pyrimidine-2,4-diamine] | – | 17.7 mL/min/kg | – |
| COc1ncc(-c2cccc(N3CCN(c4cnc(N)nc4N)CC3)c2)cn1 [Compound 3, 5-(4-(3-(2-Methoxypyrimidin-5-yl)phenyl)piperazin-1-yl)pyrimidine-2,4-diamine] | < 8.6 mL/min/kg | – | CLint scaled at 1 h, 10 µM [1]: 56.3 mL/min/kg; inhibition at 10 µM [4]: 60%; Kp at 0.5 h [5]: 1.7 ± 0.6; concentration at 0.5 h [5]: 2560 ng/g and 1610 ng/mL |
| Nc1ncc(N2CCN(c3cccc(-c4ncccn4)c3)CC2)c(N)n1 [Compound 25, 5-(4-(3-(Pyrimidin-2-yl)phenyl)piperazin-1-yl)pyrimidine-2,4-diamine] | < 8.6 mL/min/kg | – | – |
| Nc1ncc(N2CCN(c3cccc(-c4ccnnc4)c3)CC2)c(N)n1 [Compound 28, 5-(4-(3-(Pyridazin-4-yl)phenyl)piperazin-1-yl)pyrimidine-2,4-diamine] | < 8.6 mL/min/kg | – | – |
| Nc1ncc(N2CCN(c3cccc(-c4cnccn4)c3)CC2)c(N)n1 [Compound 27, 5-(4-(3-(Pyrazin-2-yl)phenyl)piperazin-1-yl)pyrimidine-2,4-diamine] | < 8.6 mL/min/kg | – | – |
| Nc1ncc(N2CCN(c3cccc(-c4cnc(C5CC5)nc4)c3)CC2)c(N)n1 [Compound 31, 5-(4-(3-(2-Cyclopropylpyrimidin-5-yl)phenyl)piperazin-1-yl)pyrimidine-2,4-diamine] | – | 17.4 mL/min/kg | – |
| Nc1ncc(N2CCN(c3cccc(-c4cncnc4)c3)CC2)c(N)n1 [Compound 26, 5-(4-(3-(Pyrimidin-5-yl)phenyl)piperazin-1-yl)pyrimidine-2,4-diamine] | < 8.6 mL/min/kg | – | CLint scaled at 1 h, 10 µM [1]: 2700 mL/min/kg |
| Nc1ncc(N2CCN(c3cccc(-c4cnc(C(F)(F)F)nc4)c3)CC2)c(N)n1 [Compound 30, 5-(4-(3-(2-(Trifluoromethyl)pyrimidin-5-yl)phenyl)piperazin-1-yl)pyrimidine-2,4-diamine] | – | 10.5 mL/min/kg | – |
| Nc1ncc(N2CCN(c3cccc(-c4ccccc4)c3)CC2)c(N)n1 [Compound 2] | – | 28.4 mL/min/kg | solubility kinetic [6]: < 4 µM; logP [3]: 3.38; solubility thermodynamic [7]: < 4 µM |
